Source: US20260200943A1, “COMPOUNDS FOR TREATING CANCER” (Genesis Therapeutics, Inc., priority 2022, published 2026)

Tests used:
CDK2/CyclinA2 = biological target: T1, CDK2/CyclinA2 (Homo sapiens, UniProt P24941); experiment: CDK2/Cyclin A2 Mobility Shift Assay (Caliper, Table B); type: biochemical; conditions: for Ki: Caliper mobility shift, 10xKm, read-out: CDK2/CCNA2 Caliper 10xKm Ki: Average Ki
T1 construct: Wild-type, full length CDK2 in complex with wildtype, full length CyclinA2: Carna Cat #04-103; purchased Carna 04-103
Procedure: 10 nL of 2000× compound in 100% DMSO is added to a 384-well polypropylene assay plate. 15 μL of 1.3×CDK2/A2 and 1.3× fluorescent substrate (Wild-type, full length CDK2 in complex with wildtype, full length CyclinA2: Carna Cat #04-103 and FL-Peptide 18: PerkinElmer Cat #760362) diluted in kinase buffer (50 mM Hepes, 0.01% Brij-35, 10 mM MgCl2, 1 mM EGTA, 0.05% BSA, and 2 mM DTT) is added to the plates on top of the compound, mixed, and pre-incubated for 30 minutes at room temperature. The fluorescently labeled peptide substrate is phosphorylated by CDK2/A2 upon ATP hydrolysis. Following the incubation, 5 μL of 4×ATP diluted in kinase buffer is added to the plate to initiate the reaction. Following the 30-minute incubation, the reaction is stopped by adding 75 μL of stopping buffer containing 0.5 M EDTA.
The assay plate is then read on a Lab Chip EZ Reader which separates the fluorescently labeled substrate and product peptides through a mobility difference. The phosphorylation of the substrate imparts a negative charge, which allows differences in separation as both are pulled through the microfluidic chip. The ratio of substrate and product values are used to generate percent conversion. These raw percent conversion values are normalized to calculate percent inhibition, which are fit to a four-parameter logistic curve and IC50 values are calculated. IC50 values are converted to Ki through using substrate and Km^app values, and the Cheng-Prusoff equation.

CDK9/CyclinT1 = CDK9/CyclinT1 (Homo sapiens, UniProt P50750); experiment: CDK9/CyclinT1 ChEF Assay (Table A); type: biochemical; design: Wild-type, full length CDK9 in complex with wildtype, full length CyclinT1: Invitrogen Cat #PV4131; purchased Invitrogen PV4131; conditions: 10xKm, read-out: CDK9/CCNT1 ChEF 10xKm Ki: Average Ki
CDK9/CyclinT1, sequence (P50750 whole entry): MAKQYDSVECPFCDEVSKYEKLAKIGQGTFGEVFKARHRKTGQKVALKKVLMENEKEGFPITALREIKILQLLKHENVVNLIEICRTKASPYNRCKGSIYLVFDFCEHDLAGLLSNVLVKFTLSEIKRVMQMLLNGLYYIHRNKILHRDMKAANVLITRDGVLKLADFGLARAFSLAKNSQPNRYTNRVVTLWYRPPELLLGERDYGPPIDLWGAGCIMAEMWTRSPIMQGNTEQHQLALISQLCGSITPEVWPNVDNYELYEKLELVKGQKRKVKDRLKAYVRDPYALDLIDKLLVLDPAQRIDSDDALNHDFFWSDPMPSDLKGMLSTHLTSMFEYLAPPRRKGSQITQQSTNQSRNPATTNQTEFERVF
CDK9/CyclinT1, sequence (O60563 whole entry partner): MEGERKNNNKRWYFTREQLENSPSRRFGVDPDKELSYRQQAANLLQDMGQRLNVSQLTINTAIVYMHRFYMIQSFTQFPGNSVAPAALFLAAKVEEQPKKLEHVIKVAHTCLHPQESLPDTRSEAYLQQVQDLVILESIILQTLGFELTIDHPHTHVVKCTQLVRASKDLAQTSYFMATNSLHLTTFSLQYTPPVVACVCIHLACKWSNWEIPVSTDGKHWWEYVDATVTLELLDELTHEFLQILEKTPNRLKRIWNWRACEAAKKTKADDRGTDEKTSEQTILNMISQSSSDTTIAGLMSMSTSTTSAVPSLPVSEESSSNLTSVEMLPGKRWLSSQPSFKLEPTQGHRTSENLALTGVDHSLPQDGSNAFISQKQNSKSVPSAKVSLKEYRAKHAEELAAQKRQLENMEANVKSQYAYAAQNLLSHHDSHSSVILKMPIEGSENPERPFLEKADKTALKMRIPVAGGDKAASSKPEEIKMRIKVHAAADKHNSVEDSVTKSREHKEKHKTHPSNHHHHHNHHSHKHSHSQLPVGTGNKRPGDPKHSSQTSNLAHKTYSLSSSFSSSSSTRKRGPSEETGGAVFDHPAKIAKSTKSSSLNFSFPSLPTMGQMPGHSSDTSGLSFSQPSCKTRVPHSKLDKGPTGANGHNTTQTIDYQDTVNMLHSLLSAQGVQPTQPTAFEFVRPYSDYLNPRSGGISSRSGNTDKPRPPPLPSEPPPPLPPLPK
Procedure: 500 nL of 50× compound in 100% DMSO is added to a 384-well low volume, white assay plate. 19.5 μL of 1.3×CDK9/CyclinT1 (Wild-type, full length CDK9 in complex with wildtype, full length CyclinT1: Invitrogen Cat #PV4131) diluted in assay buffer (50 mM Hepes, 0.01% Brij-35, 10 mM MgCl2, 0.5 mM EGTA, 1% Glycerol, and 1.2 mM DTT) is added to the plates on top of the compound and pre-incubated for 30 minutes at room temperature. Following the incubation, 5 μL of 5×Sox-chromophore (CSox) labeled peptide substrate (AQT0449, AssayQuant) & ATP diluted in assay buffer is added to the plate to initiate the reaction. The assay is incubated at room temperature for 120 min after initiation. The CSox peptide substrate is phosphorylated by CDK9/T1 upon ATP hydrolysis.
The fluorescent intensity measurement of the assay plate for all assays described above is read on a microplate reader once the assay is initiated and again at the completion of the assay. Phosphorylation of the CSox-based peptide substrate sensor results in an immediate increase in fluorescence. These raw fluorescence intensity values are normalized to calculate percent inhibition, which are fit to a four-parameter logistic curve and IC50 values are calculated. IC50 values are converted to Ki using substrate, KM^app values, and the Cheng-Prusoff equation.

Row | SMILES | Ki (CDK2/CyclinA2) | CDK2/CCNA2 Caliper 10xKm Ki: CDK2/A2 Selectivity over CDK1/B1 (CDK2/CyclinA2) | CDK2/CCNA2 Caliper 10xKm Ki: CDK2/A2 Selectivity over CDK9 (CDK2/CyclinA2) | Ki (CDK9/CyclinT1) | CDK2/CCNA2 Caliper 10xKm Ki: CDK2/A2 Selectivity over CDK6/D3 (CDK2/CyclinA2)
1 | CN1CCNC(=O)O[C@@H]2CC[C@@H](C2)c2cc(n[nH]2)Nc2ccc(cc2F)S(=O)(=O)NCC1 [Compound 100, (1^1S, 1^3R,Z)-4^2-fluoro-9-methyl-2^1H-14-oxa-5-thia-3,6,9,12-tetraaza-2(5,3)-pyrazola-4(1,4)-benzena-1(1,3)-cyclopentanacyclotetradecaphan-13-one 5,5-dioxide] | 0.001 to 0.025 µM | A (A>10) | A (A>10) | ≥ 0.1 µM | –
2 | CC1(C)CCCNS(=O)(=O)c2ccc(c(F)c2)Nc2cc([nH]n2)[C@H]2CC[C@H](C2)OC(=O)N1 [Compound 101, (1^1S,1^3R,Z)-4^2-fluoro-10,10-dimethyl-2^1H-13-oxa-5-thia-3,6,11-triaza-2(5,3)-pyrazola-4(1,4)-benzena-1(1,3)-cyclopentanacyclotridecaphan-12-one 5,5-dioxide] | 0.001 to 0.025 µM | A (A>10) | A (A>10) | 0.025 to 0.1 µM | –
3 | O=C1NCC=CCNS(=O)(=O)c2ccc(c(F)c2)Nc2cc([nH]n2)[C@H]2CC[C@H](C2)O1 [Compound 102, (1^1S,1^3R,2^4Z)-4^2-fluoro-2^1H-13-oxa-5-thia-3,6,11-triaza-2(5,3)-pyrazola-4(1,4)-benzena-1(1,3)-cyclopentanacyclotridecaphan-8-en-12-one 5,5-dioxide] | < 0.001 µM | A (A>10) | A (A>10) | ≥ 0.1 µM | A (A>10)
4 | O=C1NCCOCCNS(=O)(=O)c2ccc(c(F)c2)Nc2cc([nH]n2)[C@H]2CC[C@H](C2)O1 [Compound 89, (1^1S,1^3R,Z)-4^2-Fluoro-2^1H-9,14-dioxa-5-thia-3,6,12-triaza-2(5,3)-pyrazola-4(1,4)-benzena-1(1,3)-cyclopentanacyclotetradecaphan-13-one 5,5-dioxide] | 0.001 to 0.025 µM | A (A>10) | A (A>10) | ≥ 0.1 µM | –
5 | O=C1NCCCCCCCNS(=O)(=O)c2ccc(c(F)c2)Nc2cc([nH]n2)[C@H]2CC[C@H](C2)O1 [Compound 92] | < 0.001 µM | A (A>10) | A (A>10) | ≥ 0.1 µM | A (A>10)

The remaining lines, values ahead:

Row | Ki (CDK2/CyclinA2) | CDK2/CCNA2 Caliper 10xKm Ki: CDK2/A2 Selectivity over CDK1/B1 (CDK2/CyclinA2) | CDK2/CCNA2 Caliper 10xKm Ki: CDK2/A2 Selectivity over CDK9 (CDK2/CyclinA2) | Ki (CDK9/CyclinT1) | CDK2/CCNA2 Caliper 10xKm Ki: CDK2/A2 Selectivity over CDK6/D3 (CDK2/CyclinA2) | SMILES
6 | < 0.001 µM | A (A>10) | A (A>10) | ≥ 0.1 µM | A (A>10) | O=C1NCCCCNS(=O)(=O)c2ccc(c(F)c2)Nc2cc([nH]n2)[C@H]2CC[C@H](C2)O1 [Compound 99, (1^1S, 1^3R,Z)-4^2-fluoro-2^1H-13-oxa-5-thia-3,6,11-triaza-2(5,3)-pyrazola-4(1,4)-benzena-1(1,3)-cyclopentanacyclotridecaphan-12-one 5,5-dioxide]
7 | 0.025 to 0.1 µM | B (5≤B<10) | B (5≤B<10) | ≥ 0.1 µM | – | O=C1NCCCn2cc(cn2)S(=O)(=O)N2CCC(CC2)Nc2cc([nH]n2)[C@H]2CC[C@H](C2)O1 [Compound 95, (1^1S, 1^3R,2^4Z,6^4E)-2^1H,6^1H-12-oxa-5-thia-3,10-diaza-4(4,1)-piperidina-2(5,3),6(4,1)-dipyrazola-1(1,3)-cyclopentanacyclododecaphan-11-one 5,5-dioxide]
8 | 0.025 to 0.1 µM | A (A>10) | A (A>10) | 0.025 to 0.1 µM | – | O=C1NCCCNS(=O)(=O)c2ccc(c(F)c2)Nc2cc([nH]n2)[C@H]2CC[C@H](C2)O1 [Compound 98, (1^1S, 1^3R,Z)-4^2-fluoro-2^1H-12-oxa-5-thia-3,6, 10-triaza-2(5,3)-pyrazola-4(1,4)-benzena-1(1,3)-cyclopentanacyclododecaphan-11-one 5,5-dioxide]
9 | 0.001 to 0.025 µM | A (A>10) | A (A>10) | ≥ 0.1 µM | – | O=C1NCCCCCNS(=O)(=O)c2ccc(c(F)c2)Nc2cc([nH]n2)[C@H]2CC[C@H](C2)O1 [Compound 90, (1^1S,1^3R,Z)-4^2-fluoro-2^1H-14-oxa-5-thia-3,6,12-triaza-2(5,3)-pyrazola-4(1,4)-benzena-1(1,3)-cyclopentanacyclotetradecaphan-13-one 5,5-dioxide]
10 | 0.001 to 0.025 µM | A (A>10) | A (A>10) | 0.025 to 0.1 µM | – | O=C1NCCCCCn2cc(cn2)S(=O)(=O)N2CCC(CC2)Nc2cc([nH]n2)[C@H]2CC[C@H](C2)O1 [Compound 96, (1^1S,1^3R,2^4Z,6^4E)-2^1H,6^1H-14-oxa-5-thia-3,12-diaza-4(4,1)-piperidina-2(5,3),6(4,1)-dipyrazola-1(1,3)-cyclopentanacyclotetradecaphan-13-one 5,5-dioxide]
